Source: patent US8268827B2, “Pyridazinone derivatives as PARP inhibitors” (Istituto di Ricerche di Biologia Molecolare P. Angeletti …, priority 2007, dated 2012)
Counter-ions that a name gives are not always drawn.

What follows are compounds tested on BRCA-1 silenced HeLa cells (HeLa shBRCA1-GFP) (assay: Proliferation assay in BRCA-1 silenced HeLa cells). Settings: Homo sapiens; BRCA1 silenced HeLa cells, 168 hours; read-out: CC50 in the BRCA1 silenced HeLa cells.
Format: cell-based
Experimental: Proliferation Assay in BRCA-1 Silenced HeLa Cells
Compounds of the present invention were also tested in an anti-proliferative assay in matched pair BRCA1 wt and BRCA1-(shRNA) HeLa cells.
The assay is based on the ability of living cells to convert a redox dye (resazurin) into a fluorescent end product (resofurin). The amount of resofurin produced is directly proportional to the cell number.
HeLa shBRCA1-GFP—These are HeLa cells transduced at an MOI of 100 with a Lentivirus containing a shRNA against BRCA-1 and an expression cassette for GFP. BRCA-1 silencing is more than 80% as assessed by Taqman analysis and the cells stably express GFP.
HeLa THM-GFP—These are HeLa cells transduced at an MOI of 100 with a control vector not expressing any shRNA.
• Seed 300 cell/well in 96 wells viewplate black in 90 ul culture Medium*: • Incubate 4 hours at 37° C., 5% CO2 • Add 10 ul/well of 10× compound (5% DMSO in H2O) • Incubate for 168 hours at 37° C., 5% CO2 • Add 10 ul of Celltiter Blue solution (Promega, G8081) pre-diluted 1:1 in PBS1× • Incubate the mixture for 45′ at 37° C., 5% CO2 • Incubate 15′ at RT in the dark • Read plate at fluorimeter ex: 550 nm; em: 590 nm *Culture Medium: DMEM (GIBCO, 41966-029), 10% FCS (GIBCO, 10106-169), 0.1 mg/ml Penicillin-Streptomycin (GIBCO, 15140-114), 2 mM L-Glutamine (GIBCO, 3042190)

Compound | CC50
Cc1c(Cc2ccc(F)c(C(=O)N3CC(=O)N4CCCC[C@H]4C3)c2)n[nH]c(=O)c1C [Example 89, (9aS)-2-{5-[(4,5-Dimethyl-6-oxo-1,6-dihydropyridazin-3-yl)methyl]-2-fluorobenzoyl}octahydro-4H-pyrido[1,2-a]pyrazin-4-one trifluoroacetate] | < 5000 nM
Cc1c(Cc2ccc(F)c(C(=O)N3CCN(C4COc5ccccc5C4)C(=O)C3)c2)n[nH]c(=O)c1C (centres unmarked) [Example 98, 6-(3-{[4-(3,4-dihydro-2H-chromen-3-yl)-3-oxopiperazin-1-yl]carbonyl}-4-fluorobenzyl)-4,5-dimethyl-3-oxo-2,3-dihydropyridazin-1-ium trifluoroacetate] | < 50 nM
Cc1c(Cc2ccc(F)c(C(=O)N3CCN(C4CCCc5ccccc54)C(=O)C3)c2)n[nH]c(=O)c1C (centres unmarked) [Example 99, 6-(4-fluoro-3-{[3-oxo-4-(1,2,3,4-tetrahydronaphthalen-1-yl)piperazin-1-yl]carbonyl}benzyl)-4,5-dimethyl-3-oxo-2,3-dihydropyridazin-1-ium trifluoroacetate] | < 50 nM
Cc1c(Cc2ccc(F)c(C(=O)N3CCN(C4CCc5ccccc54)C(=O)C3)c2)n[nH]c(=O)c1C (centres unmarked) [Example 100, 6-(3-{[4-(2,3-dihydro-1H-inden-1-yl)-3-oxopiperazin-1-yl]carbonyl}-4-fluorobenzyl)-4,5-dimethyl-3-oxo-2,3-dihydropyridazin-1-ium trifluoroacetate] | < 50 nM
Cc1c(Cc2ccc(F)c(C(=O)N3CCN([C@@H]4C[C@H]5CC[C@@H]4C5)C(=O)C3)c2)n[nH]c(=O)c1C [Example 101, 6-[3-({4-[(1R,2R,4S)-Bicyclo[2.2.1]hept-2-yl]-3-oxopiperazin-1-yl}carbonyl)-4-fluorobenzyl]-4,5-dimethyl-3-oxo-2,3-dihydropyridazin-1-ium trifluoroacetate] | < 50 nM
Cc1c(Cc2ccc(F)c(C(=O)N3CC(=O)N(C4CCCC4)C(C)C3)c2)n[nH]c(=O)c1C (centres unmarked) [Example 102, 6-{3-[(4-cyclopentyl-3-methyl-5-oxopiperazin-1-yl)carbonyl]-4-fluorobenzyl}-4,5-dimethyl-3-oxo-2,3-dihydropyridazin-1-ium trifluoroacetate] | < 50 nM
Cc1c(Cc2ccc(F)c(C(=O)N3CCN([C@H]4CCCOC4)C(=O)C3)c2)n[nH]c(=O)c1C [Example 103, 6-[4-fluoro-3-({3-oxo-4-[(3S)-tetrahydro-2H-pyran-3-yl]piperazin-1-yl}carbonyl)benzyl]-4,5-dimethylpyridazin-3(2H)-one] | 50 to 500 nM
Cc1c(Cc2ccc(F)c(C(=O)N3CCN([C@@H]4CCCOC4)C(=O)C3)c2)n[nH]c(=O)c1C [Example 104, 6-[4-fluoro-3-({3-oxo-4-[(3R)-tetrahydro-2H-pyran-3-yl]piperazin-1-yl}carbonyl)benzyl]-4,5-dimethylpyridazin-3(2H)-one] | < 50 nM
CCN1CCN(C(=O)c2cc(Cc3n[nH]c(=O)c(C(F)(F)F)c3C)ccc2F)CC1=O [Example 105, 3-{3-[(4-Ethyl-3-oxopiperazin-1-yl)carbonyl]-4-fluorobenzyl}-4-methyl-6-oxo-5-(trifluoromethyl)-1,6-dihydropyridazin-1-ium trifluoroacetate] | < 50 nM
Cc1c(Cc2ccc(F)c(C(=O)N3CCN(C4COC5(CCCC5)C4)C(=O)C3)c2)n[nH]c(=O)c1C (centres unmarked) [Example 106, 6-(4-Fluoro-3-{[4-(1-oxaspiro[4.4]non-3-yl)-3-oxopiperazin-1-yl]carbonyl}benzyl)-4,5-dimethylpyridazin-3(2H)-one trifluoroacetate] | 50 to 500 nM
Cc1c(Cc2ccc(F)c(C(=O)N3CCN(C4COC5(CCCCC5)C4)C(=O)C3)c2)n[nH]c(=O)c1C (centres unmarked) [Example 107, 6-(4-Fluoro-3-{[4-(1-oxaspiro[4.5]dec-3-yl)-3-oxopiperazin-1-yl]carbonyl}benzyl)-4,5-dimethylpyridazin-3(2H)-one trifluoroacetate] | 50 to 500 nM
Cc1c(Cc2ccc(F)c(C(=O)N3CCN(C4(C)CCCCC4)C(=O)C3)c2)n[nH]c(=O)c1C [Example 110, 6-(4-fluoro-3-{[4-(1-methylcyclohexyl)-3-oxopiperazin-1-yl]carbonyl}benzyl)-4,5-dimethyl-3-oxo-2,3-dihydropyridazin-1-ium trifluoroacetate] | < 5000 nM
Cc1c(Cc2ccc(F)c(C(=O)N3CCN([C@@H]4CCOC4)C(=O)C3)c2)n[nH]c(=O)c1C [Example 112, 6-[4-Fluoro-3-({3-oxo-4-[(3R)-tetrahydrofuran-3-yl]piperazin-1-yl}carbonyl)benzyl]-4,5-dimethylpyridazin-3(2H)-one] | < 5000 nM
Cc1nc(C)c(N2CCN(C(=O)c3cc(Cc4n[nH]c(=O)c(C)c4C)ccc3F)CC2=O)s1 [Example 117, 3-(3-{[4-(2,4-Dimethyl-1,3-thiazol-5-yl)-3-oxopiperazin-1-yl]carbonyl}-4-fluorobenzyl)-4,5-dimethyl-6-oxo-1,6-dihydropyridazin-1-ium trifluoroacetate] | 50 to 500 nM
Cc1c(Cc2ccc(F)c(C(=O)N3CCN(C(c4ccc(F)cc4)C(F)F)C(=O)C3)c2)n[nH]c(=O)c1C (centres unmarked) [Example 118, 6-[3-({4-[2,2-difluoro-1-(4-fluorophenyl)ethyl]-3-oxopiperazin-1-yl}carbonyl)-4-fluorobenzyl]-4,5-dimethyl-3-oxo-2,3-dihydropyridazin-1-ium trifluoroacetate] | 50 to 500 nM
Cc1c(Cc2ccc(F)c(C(=O)N3CCN(C4CCC(c5ccccc5)C4)C(=O)C3)c2)n[nH]c(=O)c1C (centres unmarked) [Example 119, 6-(4-fluoro-3-{[3-oxo-4-(3-phenylcyclopentyl)piperazin-1-yl]carbonyl}benzyl)-4,5-dimethyl-3-oxo-2,3-dihydropyridazin-1-ium trifluoroacetate] | < 50 nM
Cc1c(Cc2ccc(F)c(C(=O)N3CCN([C@H](C)c4ccccc4)C(=O)C3)c2)n[nH]c(=O)c1C [Example 121, 6-[4-fluoro-3-({3-oxo-4-[(1R)-1-phenylethyl]piperazin-1-yl}carbonyl)benzyl]-4,5-dimethyl-3-oxo-2,3-dihydropyridazin-1-ium trifluoroacetate] | 50 to 500 nM
Cc1c(Cc2ccc(F)c(C(=O)N3CCN([C@@H](C)c4ccccc4)C(=O)C3)c2)n[nH]c(=O)c1C [Example 122, 6-[4-fluoro-3-({3-oxo-4-[(1S)-1-phenylethyl]piperazin-1-yl}carbonyl)benzyl]-4,5-dimethyl-3-oxo-2,3-dihydropyridazin-1-ium trifluoroacetate] | 50 to 500 nM
Cc1c(Cc2ccc(F)c(C(=O)N3CCN([C@H](c4ccccc4)C(F)F)C(=O)C3)c2)n[nH]c(=O)c1C [Example 123, 6-(3-{[4-(2,2-difluoro-1R-phenylethyl)-3-oxopiperazin-1-yl]carbonyl}-4-fluorobenzyl)-4,5-dimethyl-3-oxo-2,3-dihydropyridazin-1-ium trifluoroacetate] | 50 to 500 nM
Cc1c(Cc2ccc(F)c(C(=O)N3CC(=O)N(C4CCC(F)(F)CC4)C(C)C3)c2)n[nH]c(=O)c1C (centres unmarked) [Example 126, 6-(3-{[4-(4,4-Difluorocyclohexyl)-3-methyl-5-oxopiperazin-1-yl]carbonyl}-4-fluorobenzyl)-4,5-dimethylpyridazin-3(2H)-one trifluoroacetate] | < 50 nM
